Experimental data published in US20110213033A1, “SKIN CONDITIONER” (Kabushiki Kaisha Soken, priority 1998, published 2011).

What was measured:
atopic skin = test: 2-hour moisture retention duration test on atopic skin; type: in vivo, human; conditions: FIGS. 21 through 31
Procedure: A 2-hour moisture retention duration test was performed on atopic skin.
Panelists: 7 persons with atopic skin
Test Method: Same as Test Example 2
Measurement Method: Same as Text Example 2
Test Apparatus: Same as Test Example 2

[1] = test system: normal human skin fibroblasts; test: Collagen production recovery test on damaged fibroblasts; type: cell-based; conditions: hypoxanthine/xanthine oxidase damage; samples at final concentration 3.3%, 24 hours at 37° C.; FIG. 1
Procedure: A collagen production recovery test was conducted on damaged fibroblasts. Six to eight subcultures of normal human skin fibroblasts (Physicochemical Research Institute, Cell Development Bank BIRGB) were used in the test. […] Measurement of collagen production ability of a confluent in the steady state was performed according to the method of Webster, et al. based on the uptake of ^3H-proline into the produced collagen. […] Since proline is a main component of the amino acids that compose collagen, fibroblasts are cultured in a medium containing ^3H-proline, and the ^3H activity taken up into collagen in the cells is measured. Units are in d.p.m., and represent the number of […] of radioactivity released per minute.

NCCO [ethanolamine]
moisture retention duration (30 to 120 minutes after application) (atopic skin): continuation of moisture retention was observed
collagen production ability of fibroblasts damaged by active oxygen (3H-proline uptake into collagen) [1]: significantly improved

N=C(N)NCCC[C@H](N)C(=O)O [L-arginine]
moisture retention duration (30 to 120 minutes after application) (atopic skin): continuation of moisture retention was observed
collagen production ability of fibroblasts damaged by active oxygen (3H-proline uptake into collagen) [1]: significantly improved
